Counter-ions that a name gives are not always drawn.
Biological target: T1, HCV NS3/4A protease complex, BMS strain (genotype 1a) (Hepatitis C virus genotype 1a, UniProt P27958, C1454S/C1711G)
T1 construct: recombinant HCV NS3/4A protease complex (amino'acids 1027 to 1711); inferred from the pET21b vector and Ni-NTA purification; made in house; host or cells: Escherichia coli BL21 (DE3), pET21b
Assay: Recombinant HCV NS3/4A protease complex FRET peptide assay (BMS strain)
Assay type: biochemical
In short: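 Enzyme was NS3/4A complex (aa 1027-1711) from genotype 1a BMS strain, carrying C1454S and C1711G mutations plus a three-lysine tail, expressed in E. coli and Ni-NTA/size-exclusion purified to >90% purity.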

T1 sequence (P27958 1027-1711 C1454S/C1711G, one chain of several): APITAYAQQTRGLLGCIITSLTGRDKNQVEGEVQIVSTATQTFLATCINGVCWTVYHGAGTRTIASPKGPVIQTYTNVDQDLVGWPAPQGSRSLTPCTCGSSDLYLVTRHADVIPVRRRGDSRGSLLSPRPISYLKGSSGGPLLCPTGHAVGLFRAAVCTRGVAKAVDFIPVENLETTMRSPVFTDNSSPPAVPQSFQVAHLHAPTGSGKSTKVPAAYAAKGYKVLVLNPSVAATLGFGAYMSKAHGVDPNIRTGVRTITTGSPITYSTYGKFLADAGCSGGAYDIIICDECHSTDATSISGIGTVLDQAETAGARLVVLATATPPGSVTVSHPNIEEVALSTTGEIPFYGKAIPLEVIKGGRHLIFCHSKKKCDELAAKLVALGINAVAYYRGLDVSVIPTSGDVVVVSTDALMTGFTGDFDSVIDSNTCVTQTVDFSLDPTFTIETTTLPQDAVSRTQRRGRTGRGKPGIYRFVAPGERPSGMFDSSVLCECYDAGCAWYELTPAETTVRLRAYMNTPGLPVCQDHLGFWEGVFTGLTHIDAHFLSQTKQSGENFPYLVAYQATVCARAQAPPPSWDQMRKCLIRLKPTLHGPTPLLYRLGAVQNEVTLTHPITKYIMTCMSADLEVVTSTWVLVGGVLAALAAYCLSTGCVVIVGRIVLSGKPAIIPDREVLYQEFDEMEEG

With `COc1ccc2c(O[C@@H]3C[C@H]4C(=O)N[C@]5(C(=O)NS(=O)(=O)C6CC6)CC5/C=C/CCCC[C@H](N)C(=O)N4C3)cc(-c3ccccc3)nc2c1` (stereo partly drawn) [Compound 6, (1S,4R,6S,13S,17R)-7-trans-Cyclopropanesulfonic acid [13-amino-17-(7-methoxy-2-phenylquinolin-4-yloxy)-2,14-dioxo-3,15-diazatricyclo[13.3.0.0^4,6]octadec-7-ene-4-carbonyl]amide dihydrochloride] the IC50 (IC50, HCV NS3/4A protease FRET assay in vitro, IC50 ranges) was < 0.05 µM and the IC50 (IC50, against the BMS HCV NS3/4A complex) was 0.021 µM.
